Test results as given in PMC9569995, “Study of Biological Activities and ADMET-Related Properties of Salicylanilide-Based Peptidomimetics” (International Journal of Molecular Sciences, 2022).
Where two headings read alike, the source gives them in different places.

Legend:
[1] = tested on: vancomycin-resistant E. faecalis VRE 725B; assay: In vitro antibacterial evaluation, MIC by microtitration broth method; conditions: Enterococcus faecalis
[2] = tested on: methicillin-resistant S. aureus 63718; assay: as above; conditions: Staphylococcus aureus
[3] = tested on: vancomycin-resistant E. faecalis VRE 342B; assay: as above; conditions: Enterococcus faecalis
[4] = tested on: methicillin-resistant S. aureus SA 630; assay: as above; conditions: Staphylococcus aureus
[5] = tested on: Staphylococcus aureus ATCC 29213; assay: as above
[6] = tested on: Enterococcus faecalis ATCC 29212; assay: as above
[7] = tested on: vancomycin-resistant E. faecalis VRE 368; assay: as above; conditions: Enterococcus faecalis
[8] = tested on: human monocytic leukemia cell line THP-1; assay: In vitro cell viability analysis (CCK-8); type: cell-based; conditions: ± SD, n = 6, medium with 10% FBS, 24 h
Experimental: Human monocytic leukemia THP-1 cells obtained from the European Collection of Cell Cultures (ECACC, Salisbury, UK) were used for in vitro antiproliferative assays. They were routinely cultured in Roswell Park Memorial Institute RPMI 1640 medium supplemented with 10% fetal bovine serum (FBS), 2% L-glutamine, 1% penicillin, and streptomycin (all from Sigma-Aldrich) at 37 °C with 5% CO2. The cells were incubated in a complete medium (i.e., containing FBS) with test compounds at 37 °C with 5% CO2 for 24 h, similarly as we described previously. The effect of the test compounds dissolved in DMSO on cell viability was determined using a Cell Counting Kit-8 (CCK-8; Sigma) according to the manufacturer’s instructions.

M. smegmatis ATCC 700084 = assay: In vitro antimycobacterial evaluation, MIC (broth dilution micro-method); type: cell-based, Mycobacterium smegmatis; conditions: Mycolicibacterium smegmatis
Experimental: For M. smegmatis, the broth dilution micro-method in Middlebrook 7H9 medium (Difco) supplemented with ADC Enrichment (Difco) was used. […] Bacterial inocula were prepared by transferring colonies from culture to sterile water. The cell density was adjusted to 0.5 McFarland units using a densitometer (Densi-La-Meter, LIAP, Riga, Latvia). The final inoculum was made by 1:1000 dilution of the suspension with sterile water. Drug-free controls, sterility controls, and controls consisting of medium and DMSO alone were included. The determination of results was performed visually after three days of static incubation in the darkness at 37 °C in an aerobic atmosphere.

[9] = Lipophilicity determination by HPLC; type: physicochemical; conditions: for log D6.5: HPLC C18, MeOH 72%/acetate-buffered saline pH 6.5 28%; for log D7.4: HPLC C18, MeOH 72%/acetate-buffered saline pH 7.4 28%; for log k: logarithm of capacity factor, HPLC C18, MeOH 72%/H2O 28%
From the text: . A chromatographic column Symmetry® C18 5 μm, 4.6 × 250 mm, Part No. W21751W016 (Waters Corp, Milford, MA, USA) was used. The HPLC separation process was monitored by ChemStation for LC 3D systems (Agilent Technologies). Isocratic elution by a mixture of MeOH (HPLC grade, 72%) and H2O-HPLC Mili-Q grade (28%) as a mobile phase was used for the determination of capacity factor k. Isocratic elution by a mixture of MeOH (HPLC grade, 72%) and acetate-buffered saline (pH 7.4 and pH 6.5) (28%) as a mobile phase was used for the determination of distribution coefficient expressed as D7.4 and D6.5. The total flow of the column was 1.0 mL/min, injection was 20 μL, column temperature was 40 °C, and sample temperature was 10 °C. The detection wavelength of 210 nm was chosen. A KI methanolic solution was used for the determination of the dead times (tD). Retention times (tR) were measured in minutes. The capacity factors k were calculated according to the formula k = (tR − tD)/tD, where tR is the retention time of the solute, and tD is the dead time obtained using an unretained analyte. The distribution coefficients DpH were calculated according to the formula DpH = (tR − tD)/tD. Each experiment was repeated three times.

[10] = tested on: Mycobacterium tuberculosis H37Ra/ATCC 25177; assay: In vitro antimycobacterial evaluation, MIC (alamarBlue); conditions: MT
[11] = tested on: methicillin-resistant S. aureus SA 3202; assay: In vitro antibacterial evaluation, MIC by microtitration broth method; conditions: Staphylococcus aureus
[12] = ATCC700084, 72 h, MS, three days, 37 °C, read-out: MIC

Row | SMILES | IC50 [8] [µM] | MIC (M. smegmatis ATCC 700084; [12]) | log D6.5 [9] | log D7.4 [9] | log k [9] | MIC ([10]; 14 days, 37 °C) | MIC [1] [µg/mL] | MIC [2] [µg/mL] | MIC [3] [µg/mL] | MIC [4] [µg/mL] | MIC ([5]; ATCC29213) [µg/mL] | MIC ([6]; ATCC29212) [µg/mL] | MIC [7] [µg/mL] | MIC (M. smegmatis ATCC 700084; ATCC700084) [µg/mL] | MIC ([10]; Table S2) [µg/mL] | MIC [11] [µg/mL] | other results
1 | CCC[C@H](NC(=O)c1cc(Cl)ccc1O)C(=O)Nc1ccc(C(F)(F)F)cc1 [3b, 5-Chloro-2-hydroxy-N-[(2S)-1-oxo-1-{[4-(trifluoromethyl)phenyl]amino}pentan-2-yl]benzamide] | 7.3 ± 1.2 | > 256 µg/mL | 1.060 | 1.016 | 1.141 | n.a. n.d. (n.a. = no activity (MIC > 256 µg/mL)) | – | – | – | – | – | – | – | – | – | – | MIC ([1]; 24 h): > 256 µg/mL; MIC ([2]; 24 h): > 256 µg/mL; MIC ([3]; 24 h): > 256 µg/mL; MIC ([4]; 24 h): > 256 µg/mL; MIC ([5]; ATCC29213, 24 h): > 256 µg/mL; MIC ([6]; ATCC29212, 24 h): > 256 µg/mL; MIC ([7]; 24 h): > 256 µg/mL; MIC ([11]; 24 h): > 256 µg/mL
2 | CSCC[C@H](NC(=O)c1cc(Cl)ccc1OCc1ccccc1)C(=O)Nc1ccc(C(F)(F)F)cc1 [2e, 2-(Benzyloxy)-5-chloro-N-[(2S)-4-(methylsulfanyl)-1-oxo-1-{[4-(trifluoromethyl)phenyl]amino}butan-2-yl]benzamide] | > 10 | – | 1.714 | 1.689 | 1.668 | – | > 256 | > 256 | > 256 | > 256 | > 256 | > 256 | > 256 | > 256 | > 256 | > 256 | –
3 | O=C(N[C@@H](Cc1ccccc1)C(=O)Nc1ccc(C(F)(F)F)cc1)c1cc(Cl)ccc1OCc1ccccc1 [2h] | > 10 | – | 1.889 | 1.871 | 1.852 | – | > 256 | > 256 | > 256 | > 256 | > 256 | > 256 | > 256 | > 256 | > 256 | > 256 | –
4 | CCC[C@H](NC(=O)c1cc(Cl)ccc1OCc1ccccc1)C(=O)Nc1ccc(C(F)(F)F)cc1 [2b, 2-(Benzyloxy)-5-chloro-N-[(2S)-1-oxo-1-{[4-(trifluoromethyl)phenyl]amino}pentan-2-yl]benzamide] | > 10 | – | 1.742 | 1.731 | 1.709 | – | > 256 | > 256 | > 256 | > 256 | > 256 | > 256 | > 256 | > 256 | > 256 | > 256 | –
5 | CC(C)C[C@H](NC(=O)[C@H](Cc1ccccc1)NC(=O)c1cc(Cl)ccc1OCc1ccccc1)C(=O)Nc1ccc(C(F)(F)F)cc1 [5b] | > 10 | – | 1.994 | 2.027 | 2.049 | – | > 256 | > 256 | > 256 | > 256 | > 256 | > 256 | > 256 | > 256 | > 256 | > 256 | –
6 | O=C(N[C@@H](CC1CCCCC1)C(=O)Nc1ccc(C(F)(F)F)cc1)c1cc(Cl)ccc1OCc1ccccc1 [2g, 2-(Benzyloxy)-5-chloro-N-[(2S)-3-cyclohexyl-1-oxo-1-{[4-(trifluoromethyl)phenyl]amino}propan-2-yl]benzamide] | > 10 | – | 1.767 | 1.746 | 1.820 | – | > 256 | > 256 | > 256 | > 256 | > 256 | > 256 | > 256 | > 256 | > 256 | > 256 | –
7 | CC(C)C[C@H](NC(=O)c1cc(Cl)ccc1OCc1ccccc1)C(=O)Nc1ccc(C(F)(F)F)cc1 [2f] | > 10 | – | 2.014 | 1.995 | 1.975 | – | > 256 | > 256 | > 256 | > 256 | > 256 | > 256 | > 256 | > 256 | > 256 | > 256 | –
8 | C[C@H](NC(=O)c1cc(Cl)ccc1OCc1ccccc1)C(=O)Nc1ccc(C(F)(F)F)cc1 [2a, 2-(Benzyloxy)-5-chloro-N-[(2S)-1-oxo-1-{[4-(trifluoromethyl)phenyl]amino}propan-2-yl]benzamide] | > 10 | – | 1.489 | 1.474 | 1.450 | – | > 256 | > 256 | > 256 | > 256 | > 256 | > 256 | > 256 | > 256 | > 256 | > 256 | averaged lipophilicity value of log k/log D6.5/log D7.4 ([9]; average of the three experimental descriptors): 1.47 ± 0.02
9 | NNC(=O)c1ccncc1 [INH, isoniazid, reference compound] | – | 117 µM | – | – | – | 36.6 – µM | – | – | – | – | – | – | – | – | – | – | –
10 | O=C(N[C@@H](Cc1ccccc1)C(=O)N[C@@H](Cc1ccccc1)C(=O)Nc1ccc(C(F)(F)F)cc1)c1cc(Cl)ccc1OCc1ccccc1 [5c] | > 10 | – | 2.062 | 2.096 | 2.119 | – | > 256 | > 256 | > 256 | > 256 | > 256 | > 256 | > 256 | > 256 | > 256 | > 256 | –
11 | O=C(N[C@@H](Cc1ccccc1)C(=O)N[C@@H](Cc1ccccc1)C(=O)Nc1ccc(C(F)(F)F)cc1)c1cc(Cl)ccc1O [6c] | 1.3 ± 1.1 | > 256 µg/mL | 1.548 | 1.495 | 1.587 | n.a. n.d. (n.a. = no activity (MIC > 256 µg/mL)) | – | – | – | – | – | – | – | – | – | – | MIC ([1]; 24 h): > 256 µg/mL; MIC ([2]; 24 h): > 256 µg/mL; MIC ([3]; 24 h): > 256 µg/mL; MIC ([4]; 24 h): > 256 µg/mL; MIC ([5]; ATCC29213, 24 h): > 256 µg/mL; MIC ([6]; ATCC29212, 24 h): > 256 µg/mL; MIC ([7]; 24 h): > 256 µg/mL; MIC ([11]; 24 h): > 256 µg/mL
12 | CC(C)C[C@H](NC(=O)c1cc(Cl)ccc1O)C(=O)N[C@@H](Cc1ccccc1)C(=O)Nc1ccc(C(F)(F)F)cc1 [6a] | 2.2 ± 1.1 | > 256 µg/mL | 1.510 | 1.493 | 1.560 | n.a. n.d. (n.a. = no activity (MIC > 256 µg/mL)) | – | – | – | – | – | – | – | – | – | – | MIC ([1]; 24 h): > 256 µg/mL; MIC ([2]; 24 h): 444 µM; MIC ([3]; 24 h): > 256 µg/mL; MIC ([4]; 24 h): 444 µM; MIC ([5]; ATCC29213, 24 h): 222 µM; MIC ([6]; ATCC29212, 24 h): > 256 µg/mL; MIC ([7]; 24 h): > 256 µg/mL; MIC ([11]; 24 h): 444 µM
13 | CCCC[C@H](NC(=O)c1cc(Cl)ccc1OCc1ccccc1)C(=O)Nc1ccc(C(F)(F)F)cc1 [2d, 2-(Benzyloxy)-5-chloro-N-[(2S)-1-oxo-1-{[4-(trifluoromethyl)phenyl]amino}hexan-2-yl]benzamide] | > 10 | – | 1.954 | 1.902 | 1.898 | – | > 256 | > 256 | > 256 | > 256 | > 256 | > 256 | > 256 | > 256 | > 256 | > 256 | –
